Measurements from patent US6551999B1, “Angiogenesis inhibitor” (Senju Pharmaceutical Co., Ltd., priority 1995, dated 2003).
pIC50: −log10 of the molar value. Where two headings read alike, the source gives them in different places. Ends that are not written are not given here.

What was measured:
trypsin = biological target: T1, trypsin (UniProt P00760); experiment: Assay of trypsin-inhibitory activity (casein substrate); assay type: biochemical; details: read-out: Trypsin 50% Inhibitory concentration (IC50); 60 minutes at 30° C., pH 8.0
T1 sequence (P00760 1-246): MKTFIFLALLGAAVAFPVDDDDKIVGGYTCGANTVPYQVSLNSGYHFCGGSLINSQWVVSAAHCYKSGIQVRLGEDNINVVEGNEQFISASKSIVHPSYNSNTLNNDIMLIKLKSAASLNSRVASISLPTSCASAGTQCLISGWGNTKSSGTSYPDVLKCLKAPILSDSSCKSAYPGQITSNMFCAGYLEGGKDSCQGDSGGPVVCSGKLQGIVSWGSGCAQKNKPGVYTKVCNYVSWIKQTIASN
Protocol: (§1) The activity of papain which is a cysteine protease and of trypsin (Sigma) which is a serine protease was assayed in accordance with the method described in the literature [Anal. Biochem., 208, 387-392, 1993]. Thus, to a solution containing 0.5 mg/ml casein, 50 mM Tris-HCl (pH 8.0), 20 mM dithiothreitol, and 0.2 mM EDTA was added 2.5 μl of dimethyl sulfoxide containing a varying concentration of the test drug as well as 0.03 unit of papain or trypsin to initiate the reaction. The final liquid volume was adjusted to 250 μl. After 60 minutes of reaction at 30° C., 100 μl of the reaction mixture was transferred to another vessel and following addition of 50 μl of purified water and 100 μl of 50% Coumassie brilliant blue solution, the mixture was allowed to stand at room temperature for 15 minutes. The absorbance of the mixture was then measured at 595 nm. Using the value found similarly by adding 2.5 μl of dimethyl sulfoxide not containing the test drug as control and the value found without addition of the enzyme as blank, IC50 was determined in the same manner as above.

papain = biological target: T2, papain (Carica papaya, UniProt P00784); experiment: Assay of papain-inhibitory activity (casein substrate); assay type: biochemical; details: 60 minutes at 30° C., pH 8.0
T2 sequence (P00784 134-345): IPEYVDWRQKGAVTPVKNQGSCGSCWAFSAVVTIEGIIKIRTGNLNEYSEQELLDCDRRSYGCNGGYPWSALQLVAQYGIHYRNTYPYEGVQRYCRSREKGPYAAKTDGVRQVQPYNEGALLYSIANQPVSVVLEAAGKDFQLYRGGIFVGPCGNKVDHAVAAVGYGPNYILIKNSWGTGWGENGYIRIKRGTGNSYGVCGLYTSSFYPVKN
Protocol: as §1

μ-calpain = biological target: T3, μ-calpain (Homo sapiens, UniProt P07384); experiment: μ-Calpain-inhibitory activity (casein substrate); assay type: biochemical; details: 60 minutes at 30° C., pH 7.4, 4 mM calcium chloride
T3 construct: purchased Nakalai Tesque
T3 sequence (P07384 1-714): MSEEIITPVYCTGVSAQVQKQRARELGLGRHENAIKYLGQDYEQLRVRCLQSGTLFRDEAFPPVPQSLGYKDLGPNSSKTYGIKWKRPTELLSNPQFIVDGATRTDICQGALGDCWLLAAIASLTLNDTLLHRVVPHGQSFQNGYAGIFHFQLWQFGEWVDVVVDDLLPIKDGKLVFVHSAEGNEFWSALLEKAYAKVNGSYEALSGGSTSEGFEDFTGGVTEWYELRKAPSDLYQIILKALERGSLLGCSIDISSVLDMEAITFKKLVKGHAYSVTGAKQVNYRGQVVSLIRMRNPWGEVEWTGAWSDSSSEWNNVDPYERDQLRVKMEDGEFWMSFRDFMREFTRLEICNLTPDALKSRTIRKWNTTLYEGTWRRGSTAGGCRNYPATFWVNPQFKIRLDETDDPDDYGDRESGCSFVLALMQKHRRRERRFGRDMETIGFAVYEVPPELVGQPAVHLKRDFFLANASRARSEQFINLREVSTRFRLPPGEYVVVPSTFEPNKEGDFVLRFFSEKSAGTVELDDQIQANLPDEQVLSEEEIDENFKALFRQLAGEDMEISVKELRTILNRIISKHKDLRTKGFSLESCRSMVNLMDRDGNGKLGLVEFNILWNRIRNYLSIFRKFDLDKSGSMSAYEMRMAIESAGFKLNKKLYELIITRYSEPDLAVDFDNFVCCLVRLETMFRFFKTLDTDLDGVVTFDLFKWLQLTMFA
T3 sequence (P04632 1-268 partner): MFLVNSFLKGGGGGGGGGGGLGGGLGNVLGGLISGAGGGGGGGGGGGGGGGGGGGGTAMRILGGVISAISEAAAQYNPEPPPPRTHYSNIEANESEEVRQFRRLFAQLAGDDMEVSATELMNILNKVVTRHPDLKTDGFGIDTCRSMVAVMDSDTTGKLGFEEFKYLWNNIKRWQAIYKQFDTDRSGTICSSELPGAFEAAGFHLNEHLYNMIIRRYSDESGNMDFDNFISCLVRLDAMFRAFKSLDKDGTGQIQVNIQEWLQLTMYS
Protocol: Thus, to a solution containing 0.5 mg/ml casein, 50 mM Tris-HCl (pH 7.4), 20 mM dithiothreitol, and 4 mM calcium chloride was added 2.5 μl of a dimethyl sulfoxide solution containing a varying concentration of the test drug as well as 0.03 unit of μcalpain to initiate the reaction. The final liquid volume was 250 μl. After 60 minutes of reaction at 30° C., 100 μl of the reaction mixture was transferred to another vessel, to which 50 μl of purified water and 100 μl of 50% Coumassie brilliant blue solution were added. […] As a control, 2.5 μl of dimethyl sulfoxide not containing the test drug was added and the mixture was treated in the same manner as above. […] Similarly, the value found by adding 0.2 mM EDTA in lieu of 4 mM aqueous calcium chloride solution was used as the blank value. […] [formula]

cathepsin L = biological target: T4, cathepsin L (Homo sapiens, UniProt P07711); experiment: Assay of cathepsin L-inhibitory activity (Z-Phe-Arg-MCA); assay type: biochemical; details: 20 minutes at 30° C., pH 5.5
T4 construct: purchased Cosmo Bio
Protocol: The activity of cathepsin L (Cosmo Bio), a cysteine protease, was assayed by the method described in the literature [Methods in Enzymology, 80, 535-561, 1981]. Thus, to a solution containing 85 mM acetate buffer (pH 5.5), 2 mM dithiothreitol, 1 mM EDTA, 2 μg cathepsin L, and a varying concentration of the test compound was added 50 μl of 20 μM carbobenzoxy-L-phenylalanyl-L-arginine-4-methylcoumaryl-7-amide (Z-Phe-Arg-MCA) to initiate the reaction at the final liquid volume of 200 μl. After 20 minutes of reaction at 30° C., 20 μl of 1 M Tris-HCl (pH 8.0) was added so as to stop the reaction. The amount of liberated 4-methyl-7-aminocoumarin was determined with a fluorospectrometer at an excitation wavelength of 360 nm and a fluorescent emission wave length of 450 nm. Using the value found without addition of the test drug as control and the value found without addition of the enzyme as blank, IC50 was determined in the same manner as above.

[1] = tested on: angiogenesis in cornea of guinea pig; experiment: Angiogenesis in cornea of guinea pig by transplantation of bFGF-containing pellet; assay type: in vivo; details: 9 days posttransplantation; for Observation of cornea with a slit lamp: appearance of newly formed blood vessels compared to the control group: test pellet (27 mer calpastatin peptide 0.03 and 0.1 μmole, leupeptin 0.1 μmole) together with bFGF (500 ng) pellet; for Wet weight of cornea compared to the control group / Amount of albumin in cornea compared to the control group: test pellet together with bFGF pellet; for Amount of albumin in cornea compared to the control group: SDS-PAGE image analysis
Protocol: (1) Method for Preparing Pellets for Transplantation
A solution (5 μl) of 8% ethylene vinyl acetate copolymer (EVA) in dichloromethane was dropped on a plate made of Tefron, air-dried, and 0.0167 w/v % bFGF (3 μl) was dropped thereon and air-dried. After drying, the obtained product was rounded into a small rod to give a bFGF (500 ng)-containing pellet.
Using a test solution instead of 0.0167 w/v % bFGF, a test solution-containing pellet was prepared in the same manner as above. The test solution-containing pellets were prepared to contain 27 mer calpastatin peptide (0.03 μmole and 0.1 μmule/pellet, Sigma) and leupeptin (0.1 μmole/pellet, PEPTIDE […], INC.).
As a control, a pellet made of EVA alone was prepared and used as a vehicle pellet.
(2) Transplantation of Pellet into Cornea of Guinea Pig
The procedure followed the method of M. Kusaka et al. [Biochem. Biophys. Res. Comm., vol. 174, pp. 1070-1076 (1991)]. That is, male guinea pigs weighing 300-400 g were anesthetized with a 1:1 mixture of Ketalar 50 (ketamin hydrochloride, Sankyo Company, Limited) and Celactal (xylazine hydrochloride, Bayer, Ltd.). A pocket was formed in the intercellular layer of corneal stroma layer of both eyes from corneal limbus to the center of cornea, using a 0.5 mm width ophthalmic spatula. A test solution-containing pellet was inserted into the pocked thus formed, and a bFGF-containing pellet was inserted in adjacency thereto. For prevention of infection, ofloxacin eye ointment [Tarivid eye ointment (ofloxacin 0.3%, manufactured by Santen Pharmaceutical Co., Ltd.) was instilled once immediately after insertion of the pellets. Thereafter, 0.3% lomefloxacin (lomeflon ophthalmic otologic solution, manufactured by Senju Pharmaceutical Co., Ltd.) was instilled once a day for 5 days.
(3) Evaluation of the Effects of Cysteine Protease Inhibitor
The blood vessel newly formed in cornea which is an avascular tissue had high permeability, and the wet weight and plasma content were expected to elevate due to incurrent of plasma components as a result of high permeability. At 9 days posttransplantation of pellet, guinea pigs were euthanized and cornea was collected. The obtained cornea was weighed (wet weight). Then, it was homogenized, and subjected to centrifugation. The obtained water soluble protein was separated by SDS polyacrylamide gel electrophoresis. After electrophoresis, the gel was stained with Coomassie Brilliant Blue. By image analysis (NIH Image 1.31), albumin which is one of the major proteins in plasma was quantitatively assayed. As the standard substance, guinea pig serum albumin was used.

T4 sequence (P07711 114-333, species assumed): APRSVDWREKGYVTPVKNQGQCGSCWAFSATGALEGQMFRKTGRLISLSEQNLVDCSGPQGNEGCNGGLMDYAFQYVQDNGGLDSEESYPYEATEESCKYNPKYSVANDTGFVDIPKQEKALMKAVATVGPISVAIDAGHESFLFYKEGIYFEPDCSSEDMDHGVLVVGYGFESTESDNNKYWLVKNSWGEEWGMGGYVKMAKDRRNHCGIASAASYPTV

Row | Compound | pIC50 (trypsin) | pIC50 (papain) | pIC50 (μ-calpain) | pIC50 (cathepsin L) | also measured
1 | O=C(O)[C@H]1O[C@@H]1C(=O)N[C@@H](Cc1ccccc1)C(=O)N1CCN(c2ccc(F)cc2)CC1 [Compound 11] | < 2.52 | 6.96 | 5.54 | 7.92 | 
2 | CCC(C)[C@H](NC(=O)[C@H]1O[C@@H]1C(=O)O)C(=O)N1CCN(c2ccccc2Cl)CC1 (stereo partly drawn) [Compound 24, (2s,3s)-3-[[[[(1s)-1-[[4-(2-chlorophenyl)-1-piperazinyl]carbonyl]-2-methyl]butyl]amino]carbonyl]oxiranecarboxylic acid] | < 2.52 | 7.33 | 6.08 | 8.05 | 
3 | CC(C)C[C@H](NC(=O)[C@H]1O[C@@H]1C(=O)O)C(=O)N1CCN(c2ccc(F)cc2)CC1 [Compound 13] | < 2.52 | 7.10 | 6.09 | 7.54 | 
4 | CC(C)C[C@H](NC(=O)[C@H]1O[C@@H]1C(=O)O)C(=O)N1CCN(c2ccccc2Cl)CC1 [Compound 17, (2s,3s)-3-[[[[(1s)-1-[[4-(2-chlorophenyl)-1-piperazinyl]carbonyl]-3-methyl]butyl]amino]carbonyl]oxiranecarboxylic acid] | < 2.52 | 7.21 | 6.46 | 7.57 | 
5 | DPMSSTYIEELGKREVTIPPKYRELLA [27 mer calpastatin peptide, from Sigma] |  |  |  |  | Observation of cornea with a slit lamp: appearance of newly formed blood vessels compared to the control group [1]: the degree of appearance was mild; Wet weight of cornea compared to the control group [1]: suppressed increase in the wet weight of cornea; Amount of albumin in cornea compared to the control group [1]: suppressed increase in the amount of albumin in cornea
6 | CSCC[C@H](NC(=O)[C@H]1O[C@@H]1C(=O)O)C(=O)N1CCN(c2ccccc2Cl)CC1 [Compound 29, (2s,3s)-3-[[[[(1s)-1-[[4-(2-chlorophenyl)-1-piperazinyl]carbonyl]-3-methylthio]propyl]amino]carbonyl]oxiranecarboxylic acid] |  |  | 6.22 |  | 
7 | CC(C)[C@H](NS(=O)(=O)c1ccc2ccccc2c1)C(=O)NC(C=O)CC1CCCCC1 (stereo partly drawn) [Compound 53, N-(2-naphthalenesulfonyl)-L-valyl-L-cyclohexylalaninal] |  |  | 8.08 |  | 
8 | O=C(O)[C@H]1O[C@@H]1C(=O)NCC(=O)N1CCN(c2ccccc2Cl)CC1 [Compound 22, (2s,3s)-3-[[[[[4-(2-chlorophenyl)-1-piperazinyl]carbonyl]methyl]amino]carbonyl]oxiranecarboxylic acid] | < 2.52 | 5.40 | 4.74 | 4.42 | 
9 | CC(=O)NCSC[C@@H](NC(=O)[C@H]1O[C@@H]1C(=O)O)C(=O)N1CCN(c2ccccc2Cl)CC1 [Compound 28, (2s,3s)-3-[[[[(1s)1-[[4-(2-chlorophenyl)-1-piperazinyl]carbonyl]-2-acetylaminomethylthio]-ethyl]amino]carbonyl]oxiranecarboxylic acid] |  |  |  |  | pIC50 (μ-calpain; read-out: Calpain 50% inhibitory concentration (IC50)): 5.41
10 | CC(=O)N[C@@H](CC(C)C)C(=O)N[C@@H](CC(C)C)C(=O)N[C@H](C=O)CCCNC(=N)N [leupeptin] |  |  |  |  | Observation of cornea with a slit lamp: appearance of newly formed blood vessels compared to the control group [1]: the degree of appearance was mild; Wet weight of cornea compared to the control group [1]: suppressed increase in the wet weight of cornea; Amount of albumin in cornea compared to the control group [1]: suppressed increase in the amount of albumin in cornea
11 | CC(C)[C@H](NS(=O)(=O)c1ccc(F)cc1)C(=O)N[C@H](C=O)Cc1ccccc1 [Compound 43, N-(4-fluorophenylsulfonyl)-L-valyl-L-phenylalaninal] |  |  | 7.57 |  | 
